Results reported in patent publication US11220498B2, “Neuroprotective aminothiazoles” (priority 2018, dated 2022).

Assays:
[1] = test system: SUMOylation of His-RanGap; assay: HTRF assay measuring increase in SUMOylation of His-RanGap; type: biochemical; conditions: His-RanGap substrate, SUMO-E1 (SAE), SUMO-E2 (UBC9), GST-SUMO; HTRF ratio 665/620; 30 min at room temperature; triplicate
Procedure: Assay measuring increase in SUMOylation of His-RanGap. We utilized an HTRF assay containing SUMO-E1 (SAE), SUMO-E2 (UBC9), GST-SUMO and His-RanGap, a known SUMO substrate, as well as the respective fluorescent antibodies. The assay was run in 1536-well plate format and the selected activators were chosen based on their ability to increase the FRET signal over a baseline level. In 1536-well white plates, 2 μl of phosphate buffered saline (assay buffer) was dispensed into columns 1 and 2, and 2 μl of Mixture 1 (37.5 nM E1 and 100 nM His-RanGap-1) in assay buffer (50 mM Tris-HCl pH 7.4, 0.3 mM DTT, 10 mM MgCl2, 0.005% Tween-20), was dispensed into columns 3-48. Using a pintool, 70 nl of 2 mM compounds in DMSO was dispensed to columns 5-48 and 70 nl of DMSO was dispensed to columns 1-4. Using the Thermo Scientific MultiDrop Combi, 2 μL of Mixture 2 (20 mM ATP, 12.5 nM E2 and 30 nM GST-SUMO in buffer) was dispensed to all wells and incubated for 30 min. at room temperature followed by 1 μl of 500 mM KF. Plates were read on a PheraStar in a HTRF mode (Ex: 337 nm; Em: 620/665 nm). The ratio of fluorescence 665 over 620 was utilized as a readout of the assay. Increase in SUMOylation was calculated by comparison to baseline level. Measurements were done in triplicate.

CSM14.1 cells = assay: Rescue of CSM14.1 neurons from thapsigargin-induced cell death (ATPlite cell viability); type: cell-based; conditions: Rattus norvegicus, Neuron, 10 μM compound, 2 h preincubation, 15 μM TG for 20 h, read-out: % CSM14.1 Cell Viability after treatment with 15 μM TG in Presence of 10 μM compound
Source text: Ability of compounds to rescue CSM14.1 neurons from thapsigargin-induced cell death. To assess the ability of the compounds to rescue neurons from ER stress-induced cell death, the rat striatel neuroprogenitor cell line CSM14.1 was used. Endoplasmic reticulum (ER) stress has been established as the major cause of neuronal loss in stroke, ischemia, and neurodegeneration (Tajiri, S.; Oyadomari, S.; Yano, S.; Morioka, M.; Gotoh, T.; Hamada, J. I.; Ushio, Y.; Mori, M. Cell Death Differ. 2004, 11, 403-415; Kohno, K.; Higuchi, T.; Ohta, S.; Kumon, Y.; Sakaki, S. Neurosci. Lett. 1997, 224, 17-20; ladecola, C.; Zhang, F.; Casey, R.; Nagayama, M.; Ross, M. E. J. Neurosci. 1997, 17, 9157-9164). Thus, we used the known ER stress-causing agent thapsigargin (TG) to model the compromised state in vitro. TG causes 100% cell death in most cases, and compounds were assessed for neuroprotection by measuring cell viability when dosed at 10 μM. CSM14.1 cells were recovered from cultures by trypsinization and plated in 96-well plates and incubated overnight at 32° C. 5 μl of test compound was added to achieve a final concentration of […]. Salubrinal and DMSO without compound were used as positive and negative controls, respectively. After 2 h of preincubation, TG-containing DMEM was added to give a final concentration of 15 μM and incubated for an additional 20 h. Cell viability was assessed by a cellular ATP content assay (ATPlite, PerkinElmer Life Sciences).

BGMK cells = assay: cells; type: cell-based; conditions: read-out: % BGMK Cell Viability after treatment with 15 μM TG in Presence of 10 μM compound
Source text: Ability of compounds to rescue BGMK cells from thapsigargin-induced cell death. To assess an orthogonal cell line and further validate the ability of SUMOylation activators to rescue varied cell types, the compounds were also profiled for cytoprotection in BGMK cells. Again, we used the known ER stress-causing agent thapsigargin (TG) to model the compromised state in vitro. BGMKs were subcultured at 1.2×10^4 cells/ml. Wells treated with compound were done so for 2 hr. […] After treatment, all cells were washed and fed fresh DMEM complete media and CCK-8 development vehicle, incubated for 2 hr, and absorbance was measured to assess viability. Controls were DMSO (0% viability) and Salubrinal (47% viability).

Structure (SMILES)	% INCREASE IN SUMOylation over endogenous baseline level [1]	viability at 10 µM (CSM14.1 cells) [%]	viability at 10 µM (BGMK cells) [%]
O=C(Nc1nc(-c2ccccn2)cs1)c1ccc(S(=O)(=O)N2CCCCC2)cc1 [Compound C1, 4-(1-Piperidinylsulfonyl)-N-[4-(2-pyridinyl)-2-thiazolyl]-benzamide]	D (D = 40%-60% increase in SUMOylation over baseline levels)	40 to 50	–
CC(=O)Nc1ccc(C(=O)Nc2nc(-c3cccnc3)cs2)cc1 [Compound C2, 4-(Acetylamino)-N-[4-(3-pyridinyl)-2-thiazolyl]-benzamide]	A (A = 10%-20% increase)	–	–
O=C(Nc1nc(-c2ccccn2)cs1)c1ccc2c(c1)OCCO2 [Compound C3, N-(4-(Pyridin-2-yl)thiazol-2-yl)-2,3-dihydrobenzo[b][1,4]dioxine-6-carboxamide]	A (A = 10%-20% increase)	–	51 to 60
O=C(Nc1nc(-c2ccccn2)cs1)C1COc2ccccc2O1 (stereo not shown) [Compound C4, N-(4-(Pyridin-2-yl)thiazol-2-yl)-2,3-dihydrobenzo[b][1,4]dioxine-2-carboxamide]	D (D = 40%-60% increase in SUMOylation over baseline levels)	61 to 70	61 to 85
O=C(Nc1nc(-c2ccccn2)cs1)c1ccc(Cl)s1 [Compound C5, 5-Chloro-N-(4-(pyridin-2-yl)thiazol-2-yl)thiophene-2-carboxamide]	B (B = 21%-30% increase)	–	41 to 50
O=C(Nc1nc(-c2ccccn2)cs1)c1ccc(Br)s1 [Compound C6, 5-Bromo-N-(4-(pyridin-2-yl)thiazol-2-yl)thiophene-2-carboxamide]	C (C = 31%-40% increase)	61 to 70	61 to 85
